Laboratory results: ChEMBL document CHEMBL1138457, “Design and synthesis of an orally bioavailable and selective peptide epoxyketone proteasome inhibitor (PR-047)” (J Med Chem, 2009)
The source made the active and inactive calls. The calls are words filed in the database; no cut-off is given here.

Columns and labels:
Homo sapiens [1] = species: Homo sapiens; experiment: Selectivity for chymotrypsin-like activity over trypsin-like activity of human 20S proteasome
[2] = Chemical stability in simulated intestinal fluid assessed as compound remaining at 4 uM after 15 mins; format: physicochemical; conditions: read-out: Stability
[3] = Cytotoxicity against multidrug resistance transporter expressing doxorubicin resistant human MESSA cells assessed as cell viability after 72 hrs by CellTiter-Glo luminescent assay; format: functional, cell-based; conditions: MES-SA
[4] = Inhibition of chymotrypsin-like activity of 20S proteasome in human MOLT4 cells after 1 hr by […]; format: cell-based; conditions: MOLT-4, 1 h
[5] = Toxicity in iv dosed BALB/c mouse xenografted with mouse CT26 cells assessed as maximum tolerated dose; format: organism-based; conditions: in vivo
[6] = Inhibition of chymotrypsin-like activity of human 20S proteasome by spectrofluorimetry
RL [7] = experiment: Antitumor activity against human RL cells xenografted BNX mouse assessed as time to achieve significant decrease in tumor volume at 5 mg/kg, iv administered as weekly qdx2 schedule; format: functional
[8] = Inhibition of chymotrypsin-like activity of human 20S proteasome beta 5 subunit by proteasome active site ELISA
CT26 [9] = experiment: Antitumor activity against mouse CT26 cells xenografted in BALB/c mouse assessed as time to achieve significant decrease in tumor volume at 5 mg/kg, iv administered on day 3 post tumor challenge for weekly qdx2 schedule; format: functional
[10] = Chemical stability in simulated gastric fluid assessed as compound remaining at 4 uM after 15 mins; format: physicochemical; conditions: read-out: Stability
Mus musculus [11] = experiment: Inhibition of chymotrypsin-like activity of 20S proteasome in BALB/c mouse blood at 40 mg/kg, po after 1 hr; format: functional; set-up: scale not given: the % may be the effect or the level left
Homo sapiens [12] = species: Homo sapiens; experiment: Selectivity for chymotrypsin-like activity over caspase-like activity of human 20S proteasome
Mus musculus [13] = experiment: Inhibition of chymotrypsin-like activity of 20S proteasome in BALB/c mouse liver at 40 mg/kg, po after 1 hr; format: functional; set-up: scale not given: the % may be the effect or the level left
Mus musculus [14] = experiment: Inhibition of chymotrypsin-like activity of 20S proteasome in BALB/c mouse adrenal gland 40 mg/kg, po after 1 hr; format: functional; set-up: scale not given: the % may be the effect or the level left
[15] = Cytotoxicity against human MESSA cells assessed as cell viability after 72 hrs by CellTiter-Glo luminescent assay; format: functional, cell-based; conditions: MES-SA
Mus musculus [16] = experiment: Inhibition of chymotrypsin-like activity of 20S proteasome in BALB/c mouse adrenal gland at 10 mg/kg, po after 1 hr; format: functional; set-up: scale not given: the % may be the effect or the level left
[17] = Toxicity in po dosed BALB/c mouse xenografted with mouse CT26 cells assessed as maximum tolerated dose; format: organism-based; conditions: in vivo
[18] = Metabolic stability in human liver microsomes assessed as extraction ratio at 1 uM; format: ADME, Microsome
RL [19] = experiment: Antitumor activity against human RL cells xenografted in BNX mouse assessed as time to achieve significant decrease in tumor volume at 20 mg/kg, po administered as weekly qdx2 schedule; format: functional, organism-based; set-up: dose 20 mg/kg
[20] = target: T1, Proteasome subunit beta type-8 (Homo sapiens, UniProt P28062)
T1 sequence (P28062 whole entry): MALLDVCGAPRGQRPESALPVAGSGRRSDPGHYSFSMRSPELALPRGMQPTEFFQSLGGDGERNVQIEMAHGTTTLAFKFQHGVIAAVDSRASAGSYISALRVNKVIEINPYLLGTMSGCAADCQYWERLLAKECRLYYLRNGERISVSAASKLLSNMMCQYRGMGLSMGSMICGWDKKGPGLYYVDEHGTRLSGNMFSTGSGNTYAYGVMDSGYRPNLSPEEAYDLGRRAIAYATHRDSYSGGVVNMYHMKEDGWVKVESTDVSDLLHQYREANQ
Description: Inhibition of chymotrypsin-like activity of LMP7 immunoproteasome by proteasome active site ELISA

[21] = Metabolic stability in mouse liver microsomes assessed as extraction ratio at 1 uM; format: ADME, Microsome
[22] = Toxicity in po dosed BNX mouse xenografted with human RL cells assessed as maximum tolerated dose; format: organism-based; conditions: in vivo
CT26 [23] = experiment: Antitumor activity against mouse CT26 cells xenografted in BALB/c mouse assessed as time to achieve significant decrease in tumor volume at 20 mg/kg, po administered 3 days post tumor challenge in weekly qdx2 schedule; format: functional, organism-based; set-up: dose 20 mg/kg

Structure (SMILES): CC(C)C[C@H](NC(=O)[C@H](CCc1ccccc1)NC(=O)CN1CCOCC1)C(=O)N[C@@H](Cc1ccccc1)C(=O)N[C@@H](CC(C)C)C(=O)[C@@]1(C)CO1 [CARFILZOMIB]
- fold change (FC) (Homo sapiens [1]): > 100
- remaining at 0.25 h, 4 µM [2]: < 5%
- IC50 [3]: 413 nM
- IC50 [4]: 5.1 nM
- MTD [5]: 5 mg/kg
- IC50 [6]: 5.7 nM
- Activity (RL [7]): 35 days
- IC50 [8]: 5.2 nM
- Activity (CT26 [9]): 26 days
- remaining at 0.25 h, 4 µM [10]: 15%
- Activity (Mus musculus [11]): 77%
- fold change (FC) (Homo sapiens [12]): > 100
- Activity (Mus musculus [13]): 109%
- Activity (Mus musculus [14]): 83%
- IC50 [15]: 18 nM

Structure (SMILES): CCOc1cc(C(=O)N[C@@H](COC)C(=O)N[C@@H](COC)C(=O)N[C@@H](Cc2ccccc2)C(=O)[C@@]2(C)CO2)no1
- Activity (Mus musculus [16]): 3%
- remaining at 0.25 h, 4 µM [2]: 85%
- IC50 [3]: 54 nM
- MTD [17]: 20 mg/kg
- IC50 [4]: 3 nM
- hepatic extraction ratio at 1 µM [18]: 0.77 dimensionless ratio
- IC50 [6]: 1.4 nM
- IC50 [8]: 3.7 nM
- Activity (RL [19]): inactive
- IC50 [20]: 5 nM
- hepatic extraction ratio at 1 µM [21]: 0.77 dimensionless ratio
- MTD [22]: 20 mg/kg
- Activity (CT26 [23]): inactive
- IC50 [15]: 4.3 nM
